Experimental data: PMC6066219 (PLoS ONE, 2018)
“Also recorded” adds a separate entry of the source. Blank lines part the entries; values can stand above or below the compound they belong to. Starred links: 1 amine or outer side, 2 acyl side, 3 side chain; linkers in the order of their positions; H or OH if unused. Positions of bridges follow the written chain, without caps; N, C: chain ends. Non-standard residues stand in square brackets, D forms with d. Residues, ends and D or L forms follow the SMILES beside them. Chains are numbered I, II in the order given. X1 = CC1=CC(=O)N(O)CCCC(NC(=O)CCN2C(=O)CC([*:3])C2=O)C(=O)OCCC(C)=CC(=O)N(O)CCCC(NC(=O)CCN2C(=O)CC([*:2])C2=O)C(=O)OCCC(C)=CC(=O)N(O)CCCC(NC(=O)CCN2C(=O)CC([*:1])C2=O)C(=O)OCC1; Mpa = O=C(O)CCS

Key:
[1] = liver homogenate of injected mice; conditions: BALB/c mice, up to 5 min post injection
[2] = test system: peptidase (protease type 1 from bovine pancreas); test: radiolabelling solution neutralized, diluted with PBS, 10 mU of peptidase; conditions: 37°C, up to 120 min
CCK2 receptor = target: T1, CCK2 receptor (Homo sapiens, UniProt P32239); parameters: method as in PMID 29849512; conditions: natGa-labelled competitor; 125I-[Leu15]-Gastrin radioligand; whole A431-CCK2R cells; cited from earlier work
T1 construct: expressed in transfected cells; host or cells: A431 human epidermoid carcinoma cells (A431-CCK2R), gift from Dr. L. Aloj
T1 sequence (P32239 1-447): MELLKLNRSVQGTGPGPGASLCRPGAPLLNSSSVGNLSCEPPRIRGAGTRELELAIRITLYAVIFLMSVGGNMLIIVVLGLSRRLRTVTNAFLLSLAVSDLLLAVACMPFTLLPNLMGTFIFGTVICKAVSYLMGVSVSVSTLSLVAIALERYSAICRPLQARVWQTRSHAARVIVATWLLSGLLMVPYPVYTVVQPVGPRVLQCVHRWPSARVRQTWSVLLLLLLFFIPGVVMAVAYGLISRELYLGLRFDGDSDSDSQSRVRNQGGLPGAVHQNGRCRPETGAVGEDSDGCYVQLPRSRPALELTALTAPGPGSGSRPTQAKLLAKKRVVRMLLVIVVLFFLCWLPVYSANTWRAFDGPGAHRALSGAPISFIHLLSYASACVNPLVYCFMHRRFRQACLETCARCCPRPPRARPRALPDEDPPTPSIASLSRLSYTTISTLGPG

[3] = freshly prepared human serum; conditions: 37°C, up to 4 h
[4] = test system: peptidase (protease type 1 from bovine pancreas, Sigma Aldrich); test: PBS with 10 mU of peptidase; conditions: 37°C, up to 120 min
[5] = test system: peptidase (protease type 1 from bovine pancreas); test: trimeric peptides labelled with non-radioactive gallium, neutralized, 1 mU of peptidase; conditions: 37°C
[6] = test system: peptidase (protease type 1 from bovine pancreas); test: iron chelated trimeric peptides dissolved in PBS, 1 mU of peptidase added; conditions: 37°C, up to 2 h
[7] = test system: peptidase (protease type 1 from bovine pancreas); test: neutralized Ga-labelling solution with 1 mU of peptidase; conditions: 37°C
[8] = test system: peptidase (protease type 1 from bovine pancreas); test: PBS with 1 mU of peptidase; conditions: 37°C, up to 2 h
[9] = cited from earlier work

Compound: 3-MP^0-[D-Glu^1,desGlu^2-6]-Ala-Tyr-Gly-Trp-Nle-Asp-Phe-NH2 [^68Ga-Trimer-Nle]
fragment found [1]: ^68Ga-Trimer-Nle-M1, major, 5 min post injection; also recorded: ^68Ga-Trimer-Nle-M2, major, 5 min post injection | fragment found [2]: ^68Ga-Trimer-Nle-M1, major, 5 min; also recorded: ^68Ga-Trimer-Nle-M2, major

Compound: 3-MP^0-[D-Glu^1,desGlu^2-6]-Ala-Tyr-Gly-Trp-Met-Asp-Phe-NH2 [^68Ga-Trimer-Met]
fragment found [1]: ^68Ga-Trimer-Met-M1, major, 5 min post injection; also recorded: ^68Ga-Trimer-Met-M2, major, 5 min post injection | fragment found [2]: ^68Ga-Trimer-Met-M1, major, 5 min; also recorded: ^68Ga-Trimer-Met-M2, major; also recorded: ^68Ga-Trimer-Met-M3

Compound: Monomer-Met: monovalent FSC-based minigastrin conjugate: dAcFSC-mal coupled to one MG-Met-SH peptide (EAYGWMDF; D-Glu at position 1 (printed D-Glu1, desGlu2-6); N-terminal 3-mercaptopropanoyl (3-MP0) whose thiol is coupled to the maleimide of diacetyl-fusarinine C (dAcFSC-mal); C-terminal Phe amide; FSC chelate)
IC50 (CCK2 receptor): 9.71 ± 3.55 nM

Compound: 3-MP^0-[D-Glu^1,desGlu^2-6]-Ala-Tyr-Gly-Trp-Nle-Asp-Phe-NH2 [68Ga-Trimer-Nle]
fragment found [3]: ^68Ga-Trimer-Nle-M1 (tR = 10.90 min), major; also recorded: ^68Ga-Trimer-Nle-M2 (tR = 8.59 min), major | fragment found [4]: ^68Ga-Trimer-Nle-M1 (tR = 10.93 min), major; also recorded: ^68Ga-Trimer-Nle-M2 (tR = 8.60 min), major

Compound: 3-MP^0-[D-Glu^1,desGlu^2-6]-Ala-Tyr-Gly-Trp-Met-Asp-Phe-NH2 [68Ga-Trimer-Met]
fragment found [3]: ^68Ga-Trimer-Met-M1 (tR = 10.14 min), major; also recorded: ^68Ga-Trimer-Met-M2 (tR = 8.09 min), major | fragment found [4]: ^68Ga-Trimer-Met-M1 (tR = 10.14 min), major; also recorded: ^68Ga-Trimer-Met-M2 (tR = 8.09 min), major; also recorded: ^68Ga-Trimer-Met-M3 (tR = 5.68 min)

cleaved bond [6]: Tyr-Gly, major | cleaved bond [8]: Tyr-Gly, major
Compound: 3-MP^0-[D-Glu^1,desGlu^2-6]-Ala-Tyr-Gly-Trp-Met-Asp-Phe-NH2
fragment found [5]: Ga-Trimer-Met-M1; also recorded: Ga-Trimer-Met-M2; also recorded: Ga-Trimer-Met-M3 | fragment found [7]: Ga-Trimer-Met-M1 (tR = 10.08 min); also recorded: Ga-Trimer-Met-M2 (tR = 8.02 min)

cleaved bond [6]: Tyr-Gly, major | cleaved bond [8]: Tyr-Gly, major
Compound: 3-MP^0-[D-Glu^1,desGlu^2-6]-Ala-Tyr-Gly-Trp-Nle-Asp-Phe-NH2
fragment found [5]: Ga-Trimer-Nle-M1; also recorded: Ga-Trimer-Nle-M2; also recorded: Ga-Trimer-Nle-M3 | fragment found [7]: Ga-Trimer-Nle-M1 (tR = 10.86 min); also recorded: Ga-Trimer-Nle-M2 (tR = 8.52 min)

Compound: CSCC[C@H](NC(=O)[C@H](Cc1c[nH]c2ccccc12)NC(=O)CNC(=O)[C@H](Cc1ccc(O)cc1)NC(=O)[C@H](C)NC(=O)[C@@H](CCC(=O)O)NC(=O)CCSC1CC(=O)N(CCC(=O)NC2CCCN(O)C(=O)C=C(C)CCOC(=O)C(NC(=O)CCN3C(=O)CC(SCCC(=O)N[C@H](CCC(=O)O)C(=O)N[C@@H](C)C(=O)N[C@@H](Cc4ccc(O)cc4)C(=O)NCC(=O)N[C@@H](Cc4c[nH]c5ccccc45)C(=O)N[C@@H](CCSC)C(=O)N[C@@H](CC(=O)O)C(=O)N[C@@H](Cc4ccccc4)C(N)=O)C3=O)CCCN(O)C(=O)C=C(C)CCOC(=O)C(NC(=O)CCN3C(=O)CC(SCCC(=O)N[C@H](CCC(=O)O)C(=O)N[C@@H](C)C(=O)N[C@@H](Cc4ccc(O)cc4)C(=O)NCC(=O)N[C@@H](Cc4c[nH]c5ccccc45)C(=O)N[C@@H](CCSC)C(=O)N[C@@H](CC(=O)O)C(=O)N[C@@H](Cc4ccccc4)C(N)=O)C3=O)CCCN(O)C(=O)C=C(C)CCOC2=O)C1=O)C(=O)N[C@@H](CC(=O)O)C(=O)N[C@@H](Cc1ccccc1)C(N)=O (stereo partly shown) [Trimer-Met] (I: [Mpa][dE]AYGWMDF-NH2 / II: [Mpa][dE]AYGWMDF-NH2 / III: [Mpa][dE]AYGWMDF-NH2; linker I:1-II:1-III:1 via X1)
Distribution coefficient logD (pH 7.4) [9]: -2.20 ± 0.07 | IC50 (CCK2 receptor): 8.33 ± 2.2 nM
